Measurements reported in US20240245691A1 (Sitryx Therapeutics Limited, priority 2021, published 2024).
Where two headings read alike, the source gives them in different places.

Tests used:
[1] = test system: cryo-preserved hepatocytes; assay: Hepatocyte stability assay, human; assay type: in vitro ADME; settings: human, hepatocytes
Method in brief: (§1)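 Cryopreserved hepatocytes at 0.5×10^6 cells/mL in Leibovitz buffer, 37 °C, with 10 μM compound (0.1% DMSO), duplicate. Samples at 0-60 min, acetonitrile quench, LC-MS/MS; intrinsic clearance and half-life from ln % remaining versus time, with buffer-only incubations as control.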

[2] = Hepatocyte stability assay, human; assay type: in vitro ADME; settings: human, hepatocytes, T½
Method in brief: as §1

[3] = test system: NRF2 (nuclear factor erythroid 2-related factor 2); assay: NRF2 +/-GSH activation assay (DiscoverX PathHunter NRF2 translocation kit, U2OS cells); assay type: cell-based; settings: Homo sapiens
IL-1β = assay: THP-1 AlphaLISA IL-1β cytokine assay (differentiated THP-1 cells); assay type: cell-based; settings: Homo sapiens
Method in brief: (§2)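 PMA-differentiated THP-1 cells were preincubated 30 min with compound, stimulated with LPS for 24 h, then nigericin for 1 h, all at 37 °C. Supernatant IL-1β and IL-6 were quantified by AlphaLISA. % inhibition is normalised to +LPS and −LPS controls per cytokine.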

plasma protein [4] = assay: Plasma protein binding (rapid equilibrium dialysis), human; assay type: in vitro ADME; settings: for Binding (%): Human plasma, 5 μM compound, 4 hours
Experimental: (§3) Equilibrium dialysis is an accurate and reliable method for determining protein binding affinities to chemical or biological substances of low molecular weight. The Rapid Equilibrium Dialysis (RED) plate is specifically designed and extensively validated for plasma protein binding assays. It is also designed for minimal non-specific binding (Thermo Fisher).
(§4) • Phosphate buffered saline (PBS) pH 7.4 was prepared using PBS tablets as per the manufacturer's instructions. • Compound and marker stocks were prepared at 10 mM in DMSO and further diluted to 100× the assay concentration in DMSO. • Plasma was thawed on the day of the assay and centrifuged. The supernatant was transferred to a fresh vessel and the pH adjusted to pH 7.4 using lactic acid or sodium hydroxide.
(§5) Pre-prepared 100× assay compound stocks were spiked 1:100 into pH adjusted plasma. 200 μL of spiked plasma was added to the red compartment of the rapid equilibrium dialysis (RED) device for each replicate. 350 μL of PBS was added to the buffer compartment. The plate was sealed with a breathable lid and shaken on an orbital shaker in a 37° C. incubator, 5% CO2 for 4 hours.
(§6) Standard final incubation conditions were 5 μM compound in plasma containing 1% (v/v) DMSO.
(§7) A sample of the plasma/compound mixture was taken, mixed with an equal volume of PBS and quenched 1:3 with ice-cold acetonitrile containing internal standard. Methanol was also added to matrix match with calibration curve samples. This was the t=0 sample.
(§8) Post-incubation, plasma and buffer were sampled from their respective RED device compartments into separate tubes containing an equal volume of the alternate matrix for each replicate. Samples were quenched 1:3 with ice-cold acetonitrile containing internal standard. Methanol was also added to matrix match with calibration curve samples.
Calibration curves were prepared in methanol and spiked such that the matrix was equivalent to the assay samples.
Quenched samples were mixed thoroughly and protein precipitated at −20° C. for a minimum of 12 hours. Samples were then centrifuged at 4° C. Supernatants were transferred to a fresh 96 well plate for analysis.
Positive control markers were included.
(§9) Fraction unbound, percent bound and percent recovery were the standard assay parameters reported. They were calculated using the following equations: […]
An example compound of formula (I) was tested in this assay. Reference Example 2 (RE2) (which corresponds to Example 49 in WO2020/222011 (Sitryx Therapeutics, 2020)) was used as a comparator compound.

[5] = test system: cryo-preserved hepatocytes; assay: Hepatocyte stability assay, mouse; assay type: in vitro ADME; settings: mouse, hepatocytes
Method in brief: as §1

[6] = Hepatocyte stability assay, mouse; assay type: in vitro ADME; settings: mouse, hepatocytes, T½
Method in brief: as §1

IL-6 = assay: THP-1 AlphaLISA IL-6 cytokine assay (differentiated THP-1 cells); assay type: cell-based; settings: Homo sapiens
Method in brief: as §2

plasma protein [7] = assay: Plasma protein binding (rapid equilibrium dialysis), mouse; assay type: in vitro ADME; settings: 5 μM compound, 4 hours
Experimental: as §3, §4, §5, §6, §7, §8
Calibration curves were prepared in methanol and spiked such that the matrix was equivalent to the assay samples. […]
as §9

In the case of `C=C(CC(=O)N[C@@H](C)c1ccc(C(F)(F)F)cc1)C(=O)O` [Example 3, (S)-2-methylene-4-oxo-4-((1-(4-(trifluoromethyl)phenyl)ethyl)amino)butanoic acid], the Clint [1] is reported as 4 μL min^−1 10^−6 cells, the half-life at 10 μM [2] is reported as over 7.67 h and the half-life at 10 μM ([2]; data from repeated experiments) is reported as 5.97 h. The EC50 ([3]; U2OS, 6 h, read-out: NRF2 activation EC50, +GSH) was over 100 µM, the EC50 ([3]; U2OS, 6 h, read-out: NRF2 activation EC50, −GSH) was over 100 µM and the Emax ([3]; U2OS, read-out: NRF2 activation Emax, +GSH) was 0%. It also gave an Emax ([3]; U2OS, read-out: NRF2 activation Emax, −GSH) of 0%, an IC50 (IL-1β; THP-1, read-out: IL-1β (IC50)) of 2.2 µM and an IC50 (IL-1β; THP-1, read-out: IL-1β (IC50), data from repeated experiments) of 4 µM. The “Binding (%)” value (plasma protein [4]) was 89.0%, the “plasma protein binding compared to prior art ester compound (in words)” value (plasma protein [4]; Table 4, human and mouse plasma) was “lower plasma protein binding” and the Clint [5] was under 3 μL min^−1 10^−6 cells. It also gave a half-life at 10 μM [6] of 6.7 h, a half-life at 10 μM ([6]; data from repeated experiments) of over 7.67 h and an IC50 (IL-6; THP-1, read-out: IL-6 (IC50)) of over 82.5 µM. For the same compound, the “Binding (%)” value (plasma protein [7]) was 86.8%.
Compound `C=C(CC(=O)NC(C)(C)c1ccc(C(F)(F)F)cc1)C(=O)O` [Example 4, 2-methylene-4-oxo-4-((2-(4-(trifluoromethyl)phenyl)propan-2-yl)amino)butanoic acid] has a Clint [1] of under 3 μL min^−1 10^−6 cells, a T½ ([1]; 10 μM) of over 7.67 h and a half-life at 10 μM [2] of 6.5 h. For the same compound, the Emax ([3]; U2OS, +GSH, normalised to dimethyl fumarate high control, read-out: NRF2 activation Emax, +GSH) was 0%, the Emax ([3]; U2OS, −GSH, normalised to dimethyl fumarate high control, read-out: NRF2 activation Emax, −GSH) was 1% and the EC50 ([3]; +GSH, U2OS PathHunter cells, 6 hours, read-out: NRF2 activation EC50, +GSH) was over 100 µM. The EC50 ([3]; −GSH, U2OS PathHunter cells, 6 hours, read-out: NRF2 activation EC50, −GSH) was over 100 µM, the IC50 (IL-1β; THP-1, differentiated THP-1 cells, LPS 24 hr then Nigericin 1 hour, read-out: IL-1β (IC50)) was 3.4 µM and the IC50 (IL-1β; THP-1, differentiated THP-1 cells, footnote a: data from repeated experiments, read-out: IL-1β (IC50), data from repeated experiments) was 3.9 µM. For the same compound, the “Binding (%)” value (plasma protein [4]) was 89.2%, the Clint [5] was 3 μL min^−1 10^−6 cells and the half-life at 10 μM [6] was over 7.67 h. For the same compound, the IC50 (IL-6; THP-1, differentiated THP-1 cells, LPS 24 hr then Nigericin 1 hour, read-out: IL-6 (IC50)) was over 63.1 µM and the “Binding (%)” value (plasma protein [7]) was 83.7%.
